Data from patent US10793563B2, “GCN2 inhibitors and uses thereof” (Merck Patent GmbH, priority 2018, dated 2020).

Tests used:
[1] = target: GCN2 kinase (Homo sapiens (Human), UniProt Q9P2K8); experiment: GCN2 Enzyme Inhibition Assay (Transcreener ADP2 fluorescence polarization); format: biochemical; conditions: 280 μM ATP, 200 μM (RS)7 peptide, 4 nM GCN2, 25° C.; for Ki: Ki(app)
How it was run: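 At 25 °C, GCN2 kinase (typical final concentration 4 nM) and (RS)7 peptide in Tris-HCl pH 7.5 buffer with MgCl2, NaCl and DTT were preincubated with compound for 10 min, then ATP was added for a 1 h reaction. ADP was read by FP with antibody/Alexa633 tracer. Non-linear tight-binding analysis gave IC50 and apparent Ki.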

[2] = target: intracellular GCN2 (phosphorylation of the GCN2 substrate eIF2α) (Homo sapiens (Human), UniProt Q9P2K8); experiment: GCN2 Cellular Inhibition Assay (AlphaScreen SureFire P-eIF2α Ser51, borrelidin-treated U2OS cells); format: cell-based; conditions: 10 μM borrelidin, 1 h, phosphorylated eIF2α Ser51, read-out: GCN2 Biomarker (IC50)
Chain of intracellular GCN2 (phosphorylation of the GCN2 substrate eIF2α) (Q9P2K8 whole entry): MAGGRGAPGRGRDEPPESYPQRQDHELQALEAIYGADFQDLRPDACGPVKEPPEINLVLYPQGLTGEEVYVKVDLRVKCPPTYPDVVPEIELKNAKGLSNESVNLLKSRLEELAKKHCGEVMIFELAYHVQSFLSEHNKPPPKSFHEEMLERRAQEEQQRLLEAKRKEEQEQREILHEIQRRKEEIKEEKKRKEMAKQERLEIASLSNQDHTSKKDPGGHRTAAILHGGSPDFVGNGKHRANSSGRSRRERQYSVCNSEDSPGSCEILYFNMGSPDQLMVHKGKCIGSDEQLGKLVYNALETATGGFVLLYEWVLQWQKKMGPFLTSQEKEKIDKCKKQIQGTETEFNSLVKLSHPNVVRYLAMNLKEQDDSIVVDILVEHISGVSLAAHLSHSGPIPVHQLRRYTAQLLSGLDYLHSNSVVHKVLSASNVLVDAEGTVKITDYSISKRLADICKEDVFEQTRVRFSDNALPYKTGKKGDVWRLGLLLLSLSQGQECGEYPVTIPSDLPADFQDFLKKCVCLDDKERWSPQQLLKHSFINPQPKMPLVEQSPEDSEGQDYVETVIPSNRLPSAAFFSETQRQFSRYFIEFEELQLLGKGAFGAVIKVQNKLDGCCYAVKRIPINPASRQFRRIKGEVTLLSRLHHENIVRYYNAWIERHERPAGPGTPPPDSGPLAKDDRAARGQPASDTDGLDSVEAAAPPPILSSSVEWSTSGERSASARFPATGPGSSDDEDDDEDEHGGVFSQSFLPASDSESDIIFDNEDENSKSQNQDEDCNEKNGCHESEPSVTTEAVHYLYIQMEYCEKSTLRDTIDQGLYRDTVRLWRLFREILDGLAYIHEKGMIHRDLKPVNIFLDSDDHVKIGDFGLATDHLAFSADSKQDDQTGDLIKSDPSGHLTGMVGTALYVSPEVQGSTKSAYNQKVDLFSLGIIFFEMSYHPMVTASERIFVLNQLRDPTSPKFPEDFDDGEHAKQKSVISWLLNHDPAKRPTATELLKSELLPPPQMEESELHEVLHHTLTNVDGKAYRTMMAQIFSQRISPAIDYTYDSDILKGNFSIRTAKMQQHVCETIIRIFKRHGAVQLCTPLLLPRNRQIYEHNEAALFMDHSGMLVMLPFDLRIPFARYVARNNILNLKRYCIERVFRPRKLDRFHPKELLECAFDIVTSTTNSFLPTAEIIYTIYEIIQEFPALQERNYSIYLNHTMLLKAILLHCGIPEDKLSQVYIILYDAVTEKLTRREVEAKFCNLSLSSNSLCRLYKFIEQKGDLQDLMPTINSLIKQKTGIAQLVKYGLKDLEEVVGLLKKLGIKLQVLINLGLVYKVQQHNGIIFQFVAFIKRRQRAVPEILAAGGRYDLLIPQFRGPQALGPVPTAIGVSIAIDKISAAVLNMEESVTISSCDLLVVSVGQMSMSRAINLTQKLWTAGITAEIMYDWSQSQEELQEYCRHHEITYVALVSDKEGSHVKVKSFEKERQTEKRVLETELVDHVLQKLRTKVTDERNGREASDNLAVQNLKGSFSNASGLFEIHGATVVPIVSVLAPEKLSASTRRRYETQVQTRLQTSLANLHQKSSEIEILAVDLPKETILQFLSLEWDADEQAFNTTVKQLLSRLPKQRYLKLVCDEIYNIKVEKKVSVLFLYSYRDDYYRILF
How it was run: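 Phospho-eIF2α (Ser51) measured by AlphaScreen SureFire in lysates of U2OS cells stimulated 1 h at 37 °C with 10 μM borrelidin alongside compound, 4-fold dilutions from 40 μM. Inhibition expressed as percent relative to borrelidin-alone controls.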

Chain of GCN2 kinase (Q9P2K8 whole entry): as above

In the case of FC(F)(F)c1ccc2ncc(-c3nccc(N4CCCC5(CNC5)C4)n3)n2c1 [I-413, 6-(2-(6-(trifluoromethyl)imidazo[1,2-a]pyridin-3-yl)pyrimidin-4-yl)-2,6-diazaspiro[3.5]nonane], the IC50 [1] is reported as 100 to 1000 nM and the IC50 [2] is reported as greater than 5000 nM.
With O=C(c1cnn(C2COC2)c1)N1CCN(c2ccnc(-c3cnc4ccc(C(F)(F)F)cn34)n2)CC1c1cn[nH]c1 (stereo not shown) [I-417, (2-(1H-pyrazol-4-yl)-4-(2-(6-(trifluoromethyl)imidazo[1,2-a]pyridin-3-yl)pyrimidin-4-yl)piperazin-1-yl)(1-(oxetan-3-yl)-1H-pyrazol-4-yl)methanone] the IC50 [1] was 100 to 1000 nM and the IC50 [2] was greater than 5000 nM.
CC1(CN2CCN(c3ccnc(-c4cnc5ccc(C(F)(F)F)cn45)n3)CC2c2cn[nH]c2)CC1 (stereo not shown) [I-510, 3-(4-(4-((1-methylcyclopropyl)methyl)-3-(1H-pyrazol-4-yl)piperazin-1-yl)pyrimidin-2-yl)-6-(trifluoromethyl)imidazo[1,2-a]pyridine] showed an IC50 [1] of less than 10 nM and an IC50 [2] of less than 500 nM.
CS(=O)(=O)NC[C@@H]1CN(c2ccnc(-c3cnc4ccc(C(F)F)cn34)n2)CCO1 [I-13, N-[[(2S)-4-[2-[6-(Difluoromethyl)imidazo[1,2-a]pyridin-3-yl]pyrimidin-4-yl]morpholin-2-yl]methyl]methanesulfonamide] gave a Ki [1] of less than 10 nM and an IC50 [2] of 500 to 5000 nM.
Molecule C[C@H]1CN(c2nccc(-c3cnc4ccc(C(F)(F)F)cn34)n2)CC(c2cc[nH]n2)O1 (stereo in doubt) [I-138, (2S,6R)-2-methyl-6-(1H-pyrazol-3-yl)-4-(4-(6-(trifluoromethyl)imidazo[1,2-a]pyridin-3-yl)pyrimidin-2-yl)morpholine] has an IC50 [1] of 10 to 100 nM and an IC50 [2] of less than 500 nM.
In the case of C[C@H](NS(C)(=O)=O)[C@@H]1CN(c2ccnc(-c3cnc4ccc(C(F)(F)F)cn34)n2)CCO1 [I-407, N—((S)-1-((S)-4-(2-(6-(trifluoromethyl)imidazo[1,2-a]pyridin-3-yl)pyrimidin-4-yl)morpholin-2-yl)ethyl)methanesulfonamide], the IC50 [1] is reported as 10 to 100 nM and the IC50 [2] is reported as 500 to 5000 nM.
C[C@@H]1[C@@H](c2cn[nH]c2)N(C2COC2)CCN1c1ccnc(-c2cnc3ccc(C(F)(F)F)cn23)n1 [I-363, 3-(4-((2R,3R)-2-methyl-4-(oxetan-3-yl)-3-(1H-pyrazol-4-yl)piperazin-1-yl)pyrimidin-2-yl)-6-(trifluoromethyl)imidazo[1,2-a]pyridine] was tested, and the IC50 [1] was 100 to 1000 nM and the IC50 [2] was 500 to 5000 nM.
With O=C(O)CC1CN(c2ccnc(-c3cnc4ccc(Cl)cn34)n2)CCO1 (stereo not shown) [I-298, 2-(4-(2-(6-chloroimidazo[1,2-a]pyridin-3-yl)pyrimidin-4-yl)morpholin-2-yl)acetic acid] the IC50 [1] was 100 to 1000 nM and the IC50 [2] was greater than 5000 nM.
CS(=O)(=O)NC[C@@H]1CN(c2cncc(-c3cnc4ccc(Cl)cn34)n2)CCO1 [I-113, (S)—N-((4-(6-(6-chloroimidazo[1,2-a]pyridin-3-yl)pyrazin-2-yl)morpholin-2-yl)methyl)methanesulfonamide] gave a Ki [1] of less than 10 nM and an IC50 [2] of 500 to 5000 nM.
With FC1(F)CCCN(c2ccnc(-c3cnc4ccc(C(F)(F)F)cn34)n2)C1 [I-224, 3-(4-(3,3-difluoropiperidin-1-yl)pyrimidin-2-yl)-6-(trifluoromethyl)imidazo[1,2-a]pyridine] the IC50 [1] was 100 to 1000 nM and the IC50 [2] was less than 500 nM.
In the case of NC(=O)[C@@H]1CCCN(c2nc(-c3cnc4ccc(C(F)(F)F)cn34)ccc2F)C1 [I-260, (R)-1-(3-fluoro-6-(6-(trifluoromethyl)imidazo[1,2-a]pyridin-3-yl)pyridin-2-yl)piperidine-3-carboxamide], the IC50 [1] is reported as less than 10 nM and the IC50 [2] is reported as less than 500 nM.
Work on CC1CC(N=S(C)(C)=O)CN(c2ccnc(-c3cnc4ccc(C(F)(F)F)cn34)n2)C1 (stereo not shown) [I-32, dimethyl((5-methyl-1-(2-(6-(trifluoromethyl)imidazo[1,2-a]pyridin-3-yl)pyrimidin-4-yl)piperidin-3-yl)imino)-λ^6-sulfanone] yielded a Ki [1] of 10 to 100 nM and an IC50 [2] of 500 to 5000 nM.
O=C1NCC2CN(c3ccnc(-c4cnc5ccc(C(F)(F)F)cn45)n3)CCN12 (stereo not shown) [I-6, 7-(2-(6-(trifluoromethyl)imidazo[1,2-a]pyridin-3-yl)pyrimidin-4-yl)hexahydroimidazo[1,5-a]pyrazin-3(2H)-one] was tested, and the Ki [1] was 10 to 100 nM and the IC50 [2] was 500 to 5000 nM.
In the case of FC(F)c1ccc2ncc(-c3nccc(N4CCOC(c5cn[nH]c5)C4)n3)n2c1 (stereo not shown) [I-15, 4-[2-[6-(Difluoromethyl)imidazo[1,2-a]pyridin-3-yl]pyrimidin-4-yl]-2-(1H-pyrazol-4-yl)morpholine], the Ki [1] is reported as less than 10 nM and the IC50 [2] is reported as less than 500 nM.
Cc1[nH]ncc1[C@H]1C[C@@H](N=S(C)(C)=O)CN(c2ccnc(-c3cnc4ccc(C(F)(F)F)cn34)n2)C1 [I-342, dimethyl(((3R,5R)-5-(5-methyl-1H-pyrazol-4-yl)-1-(2-(6-(trifluoromethyl)imidazo[1,2-a]pyridin-3-yl)pyrimidin-4-yl)piperidin-3-yl)imino)-λ6-sulfanone] gave an IC50 [1] of 10 to 100 nM and an IC50 [2] of less than 500 nM.
NC(=O)[C@H]1CCCN(c2ccnc(-c3cnc4cc(F)c(Cl)cn34)n2)C1 [I-48, (3S)-1-[2-(6-Chloro-7-fluoro-imidazo[1,2-a]pyridin-3-yl)pyrimidin-4-yl]piperidine-3-carboxamide] was tested, and the Ki [1] was less than 10 nM and the IC50 [2] was less than 500 nM.
For Cc1[nH]ncc1[C@H]1C[C@H](N=S(C)(C)=O)CN(c2ccnc(-c3cnc4ccc(C(F)(F)F)cn34)n2)C1 [I-344, dimethyl(((3 S,5R)-5-(5-methyl-1H-pyrazol-4-yl)-1-(2-(6-(trifluoromethyl)imidazo[1,2-a]pyridin-3-yl)pyrimidin-4-yl)piperidin-3-yl)imino)-λ6-sulfanone], the IC50 [1] was 100 to 1000 nM and the IC50 [2] was 500 to 5000 nM.
OCC1(c2ccccc2)CCCN(c2ccnc(-c3cnc4cc(F)c(Cl)cn34)n2)C1 (stereo not shown) [I-85, {1-[2-(6-Chloro-7-fluoro-imidazo[1,2-a]pyridin-3-yl)-pyrimidin-4-yl]-3-phenyl-piperidin-3-yl}-methanol] showed a Ki [1] of 100 to 1000 nM and an IC50 [2] greater than 5000 nM.
For COCCn1cc([C@@H]2C[C@@H](C)CN(c3nccc(-c4cnc5ccc(C(F)(F)F)cn45)n3)C2)cn1 [I-145, 3-(2-((3S,5R)-3-(1-(2-methoxyethyl)-1H-pyrazol-4-yl)-5-methylpiperidin-1-yl)pyrimidin-4-yl)-6-(trifluoromethyl)imidazo[1,2-a]pyridine], the IC50 [1] was 100 to 1000 nM and the IC50 [2] was less than 500 nM.
For CC1CCC(C(=O)O)CN1c1ccnc(-c2cnc3ccc(C(F)(F)F)cn23)n1 (stereo not shown) [I-201, 6-methyl-1-(2-(6-(trifluoromethyl)imidazo[1,2-a]pyridin-3-yl)pyrimidin-4-yl)piperidine-3-carboxylic acid], the IC50 [1] was 10 to 100 nM and the IC50 [2] was 500 to 5000 nM.
COCCn1cc([C@H]2C[C@@H](C)CN(c3nccc(-c4cnc5ccc(C(F)(F)F)cn45)n3)C2)cn1 [I-143, 3-(2-((3R,5R)-3-(1-(2-methoxyethyl)-1H-pyrazol-4-yl)-5-methylpiperidin-1-yl)pyrimidin-4-yl)-6-(trifluoromethyl)imidazo[1,2-a]pyridine] was tested, and the IC50 [1] was 10 to 100 nM and the IC50 [2] was less than 500 nM.
CS(=O)(=O)NC[C@@H]1CN(c2nc(-c3cnc4ccc(C(F)(F)F)cn34)cs2)CCO1 [I-111, (S)—N-((4-(4-(6-(trifluoromethyl)imidazo[1,2-a]pyridin-3-yl)thiazol-2-yl)morpholin-2-yl)methyl)methanesulfonamide] showed a Ki [1] of 10 to 100 nM and an IC50 [2] of 500 to 5000 nM.
N#C[C@H]1CCCN(c2ccnc(-c3cnc4ccc(C(F)(F)F)cn34)n2)C1 [I-227, (S)-1-(2-(6-(trifluoromethyl)imidazo[1,2-a]pyridin-3-yl)pyrimidin-4-yl)piperidine-3-carbonitrile] gave an IC50 [1] of 10 to 100 nM and an IC50 [2] of 500 to 5000 nM.
With CS(=N)(=O)C[C@H]1CCCN(c2ccnc(-c3cnc4ccc(Cl)cn34)n2)C1 (stereo in doubt) [I-21, 6-Chloro-3-(4-(3-((methylsulfonimidoyl)methyl)piperidin-1-yl)pyrimidin-2-yl)imidazo[1,2-a]pyridine] the Ki [1] was 10 to 100 nM and the IC50 [2] was 500 to 5000 nM.
CS(=O)(=O)NC[C@@H]1CN(c2nc(-c3cnc4ccc(C(F)(F)F)cn34)ns2)CCO1 [I-106, (S)—N-((4-(3-(6-(trifluoromethyl)imidazo[1,2-a]pyridin-3-yl)-1,2,4-thiadiazol-5-yl)morpholin-2-yl)methyl)methanesulfonamide] was tested, and the Ki [1] was 10 to 100 nM and the IC50 [2] was greater than 5000 nM.
Work on FC(F)(F)c1ccc2ncc(-c3nccc(N4CCC[C@H](C(F)(F)F)C4)n3)n2c1 [I-233, (S)-6-(trifluoromethyl)-3-(4-(3-(trifluoromethyl)piperidin-1-yl)pyrimidin-2-yl)imidazo[1,2-a]pyridine] yielded an IC50 [1] of 100 to 1000 nM and an IC50 [2] of 500 to 5000 nM.
Molecule FC(F)(F)c1ccc2ncc(-c3ccnc(N4CCOC(c5cn[nH]c5)C4)n3)n2c1 (stereo not shown) [I-9, 2-(1H-Pyrazol-4-yl)-4-(4-(6-(trifluoromethyl)imidazo[1,2-a]pyridin-3-yl)pyrimidin-2-yl)morpholine] has a Ki [1] of less than 10 nM and an IC50 [2] of less than 500 nM.
OC1(c2ccccc2)CCCN(c2ccnc(-c3cnc4cc(F)c(Cl)cn34)n2)C1 (stereo not shown) [I-81, 1-[2-(6-Chloro-7-fluoro-imidazo[1,2-a]pyridin-3-yl)-pyrimidin-4-yl]-3-phenyl-piperidin-3-ol] showed a Ki [1] of 10 to 100 nM and an IC50 [2] of 500 to 5000 nM.
CC(C)(C)OC(=O)N1CC2(CCCN(c3ccnc(-c4cnc5ccc(C(F)(F)F)cn45)n3)C2)C1 [I-387, tert-butyl 6-(2-(6-(trifluoromethyl)imidazo[1,2-a]pyridin-3-yl)pyrimidin-4-yl)-2,6-diazaspiro[3.5]nonane-2-carboxylate] showed an IC50 [1] of 100 to 1000 nM and an IC50 [2] of 500 to 5000 nM.
